{"source": "patent US6919380B2", "about": "“Derivatives of C2-substituted indan-1-ol systems for the prophylaxis or treatment of obesity” (Aventis Pharma Deutschland GmbH., priority 2001, dated 2005)", "key": {"female NMRI mice": {"tested_on": "female NMRI mice", "test": "Anorectic action: cumulative evaporated milk consumption after removal of feed for 24 hours", "format": "in vivo, mouse", "details": "dose 10 mg/kg (ip or po, not specified)", "procedure": "The activity of the compounds of the formula I was assayed as follows: […]\nThe anorectic action was tested on female NMRI mice. After removal of feed for 24 hours, the preparation to be tested was administered intraperitoneally (ip) or by gavage (po). The animals were housed singly and, with free access to drinking water, they were offered evaporated milk 30 minutes after administration of the preparation. The consumption of evaporated milk was determined and the general behavior of the animals was monitored every half an hour for 7 hours. The measured milk consumption was compared to that of vehicle-treated control animals."}}, "data": [{"smiles": "CC(=O)OC1c2ccc(Cl)cc2CC1S(C)(=O)=O", "note": "(stereo not drawn) [Example 1, 1-Acetoxy-5-chloro-2-methylsulfonylindane]", "values": [{"measurement": "Reduction in cumulative milk consumption as % of the control", "setting": "female NMRI mice; compared with control animals", "result": 81, "unit": "%"}, {"measurement": "cumulative milk consumption by treated animals", "setting": "female NMRI mice; milk offered 30 minutes after administration, monitored for 7 hours", "result": "5/0.28 ml"}, {"measurement": "melting point", "result": 136, "unit": "°C"}]}]}
